{
  "source": "patent US20070105873A1",
  "about": "(priority 2003, published 2007)",
  "key": {"[1]": {"test_system": "Phytophthora infestans", "assay_type": "in vivo", "details": "tomato cultivar Goldene Prinzessin, sprayed with 250 ppm a.i., infected next day, visual rating after 6 days; untreated 80"}, "[2]": {"test_system": "Alternaria solani", "test": "Persistency against early blight on tomatoes caused by Alternaria solani, protective treatment", "assay_type": "in vivo", "details": "tomato cultivar Goldene Prinzessin, sprayed with 16 ppm a.i., infected only after seven days, rating after a further 5 days; untreated 90", "description": "The active compounds were prepared separately as a stock solution with 0.25% by weight of active compound in acetone or DMSO. 1% by weight of the emulsifier Uniperol® EL (wetting agent having emulsifying and dispersing action based on ethoxylated alkylphenols) was added to this solution. The stock solutions of the active compounds were diluted with water to the stated concentration.\n2. Persistency Against Early Blight on Tomatoes Caused by Alternaria solani, Protective Treatment\nLeaves of potted plants of the cultivar “Goldene Prinzessin” were sprayed to runoff point with an aqueous suspension having the concentration of active compound stated below.\nTo test for persistency, the leaves were infected with an aqueous spore suspension of Alternaria solani in a 2% strength biomalt solution having a density of 0.17×10^6 spores/ml only after seven days. The plants were then placed in a water-vapor-saturated chamber at 20-22° C. After a further 5 days, the disease on the untreated, but infected control plants had developed to such an extent that the infection could be determined visually in %."}},
  "data": [
    {"smiles": "CC(C)OC(=O)c1nc(Cl)c(-c2c(F)cc(F)cc2F)c(N[C@@H](C)C(F)(F)F)n1", "note": "[V-3, isopropyl 4-chloro-6-((S)-2,2,2-trifluoro-1-methylethylamino)-5-(2,4,6-trifluorophenyl)pyrimidine-2-carboxylate]", "values": [
      {"measurement": "infection at 250 ppm of a.i. (% leaf area)", "setting": "[1]", "value": 5, "unit": "% leaf area"}
    ]},
    {"smiles": "C[C@H](Nc1nc(C(N)=O)nc(Cl)c1-c1c(F)cc(F)cc1F)C(F)(F)F", "note": "[I-5, 4-chloro-6-((S)-2,2,2-trifluoro-1-methylethylamino)-5-(2,4,6-trifluorophenyl)-pyrimidine-2-carboxamide]", "values": [
      {"measurement": "infection at 16 ppm of a.i. (% leaf area)", "setting": "[2]", "value": 30, "unit": "% leaf area"},
      {"measurement": "infection at 250 ppm of a.i. (% leaf area)", "setting": "[1]", "value": 0, "unit": "% leaf area"}
    ]}
  ]
}
